{"source": "patent US9555028B2", "about": "“Drug for preventing/treating ocular disease” (JAPAN BIO PRODUCTS CO., LTD., priority 2012, dated 2017)", "key": {"Muc5ac secretion": {"test_system": "Muc5ac secretion", "test": "In vivo instillation, then Muc5ac secreted into culture supernatant of sampled conjunctival tissue (ELISA)", "parameters": "species or system white rabbit", "conditions": "100 μM instilled 4 times per day for 3 days; tissue soaked in HBSS 1.5 and 3 hours, n=6, FIG. 4a", "procedure": "In order to examine whether or not Compound 1 enhances Muc5ac secretion, in vivo experiments were carried out using white rabbits (Slc:JW/CSKSlc:NZW strain).\n(§1) Specifically, the right eye of a white rabbit was subjected to instillation administration of a solution containing 100 μM of Compound 1, which had been dissolved in a physiological saline solution, at a dosage of 30 μL to 50 μL/dose 4 times per day. The left eye was subjected to instillation administration of a physiological saline solution as a control at a dosage of 30 μL to 50 μL/dose 4 times per day. For each group, the experiment was performed at n=6.\nAfter 3 days with the above administration, each white domestic rabbit was euthanized and its conjunctival tissue was sampled using a trephine with a diameter of 5 mm. The sample was soaked in an HBSS; its culture supernatant was collected after an hour and a half; and further, after 3 hours, its culture supernatant and conjunctival tissue were collected. The amount of Muc5ac included in the culture supernatant was quantified using the same ELISA assay as in Example 1."}, "[1]": {"test_system": "Muc5ac in conjunctival tissue", "test": "In vivo instillation, then PAS staining of conjunctival tissue sections", "parameters": "species or system white rabbit", "conditions": "100 μM instilled 4 times per day, FIG. 5", "procedure": "as §1\nFurther, the conjunctival tissues from the control group and the administration group were subjected to PAS staining, which stains neutral polysaccharides and glycoproteins. Specifically, a conjunctival tissue was collected from a rabbit; the conjunctive tissue collected was cut into regions at the upper, nasal, lower, and ear sides; and paraffin sections were prepared. Next, after washed with distilled water for deparaffinization, the sections were immersed in 3% acetic acid aqueous solution and soaked in an alcian blue solution for 30 minutes. After washed with distilled water, the sections were soaked in 1% periodic acid aqueous solution for 10 minutes, washed with running water for 5 minutes, and washed with distilled water. After soaked in a cold Schiff reagent for 10 minutes, the sections were soaked in sulfurous acid solution for 3 minutes and subjected to sulfurous acid solution treatment. […]"}, "[2]": {"test_system": "Muc5ac secretion from conjunctival tissue", "test": "Ex vivo Muc5ac secretion from conjunctival tissue, culture supernatant quantified by ELISA", "format": "cell-based, white rabbit", "conditions": "for amount of Muc5ac in culture supernatant in the presence of Compound 1: n=5, FIG. 1(b)", "procedure": "In order to examine an effect of Compound 1 on an amount of Muc5ac secretion, ex vivo experiments were carried out using a conjunctival tissue from a white rabbit (Slc:JW/CSKSlc:NZW strain).\nSpecifically, a trephine with a diameter of 3 mm was used to sample a conjunctival tissue from a white rabbit. Next, the tissue sample was soaked in an HBSS containing 100 μM of Compound 1 for 90 minutes, 3 hours, 6 hours, or 12 hours. The conjunctival tissue of the control group was soaked in an HBSS having a physiological saline with a volume equal to that of Compound 1. After the conjunctival tissue was soaked for a predetermined time, its culture supernatant was collected. For each group, the experiment was performed at n=5.\nThe amount of Muc5ac included in the culture supernatant was detected using the following assay.\nAssay for Muc5ac Secretion (ELISA Assay)\nFirst, the culture supernatant of the conjunctival tissue of the control group was diluted using an HBSS, and a standard curve was prepared at a Muc5ac concentration of 500, 250, 125, 62.5, 31.25, 15.63, and 7.81 AU/mL (AU represents an arbitrary unit). The sample solutions were diluted with an HBSS in such a manner that absorbance at a wavelength of 450 nm was fitted within a range of the absorbance of the standard curve at a wavelength of 450 nm. Next, the solutions for the standard curve, the sample solutions for the test group, and the sample solutions for the control group were added to a 96-well microplate (#3590, manufactured by Corning Incorporated) at 100 μL/well, and were incubated overnight at 40° C. For each sample, the measurement was performed at n=2.\nAfter the solutions for the standard curve and the sample solutions were removed, 200 μL of washing buffer was used to wash the wells three times. The washing buffer (hereinafter, also referred to as a TBST solution) was prepared by adding Tween-20 at a final concentration of 0.05% to Tris buffered saline (pH 7.6).\nThen, 200 μL of blocking buffer (1% bovine serum albumin-containing TBST solution) was added to each well, and the plate was incubated at room temperature for 1 hour. After the blocking buffer had been removed, a primary antibody (an anti-human Muc5ac antibody, manufactured by NeoMarkers, Inc.; Clone 45M1) solution, which was 100-fold diluted with the blocking buffer, was added to the plate at 100 μL/well, and the plate was incubated at room temperature for 1 hour. After the primary antibody solution was removed, 200 μL of the washing buffer was used to wash the wells three times.\nThen, a secondary antibody (an HRP-labelled sheep anti-mouse IgG antibody, manufactured by GE Healthcare, Inc.) solution, which was 2000-fold diluted with the blocking buffer, was added to the plate at 100 μL/well, and the plate was incubated at room temperature for 1 hour. After the secondary antibody solution was removed, 200 μL of the washing buffer was used to wash the wells three times.\nIn order to quantify the Muc5ac content in each sample, 100 μL of 3,3′,5,5′-tetramethylbenzidine was added to each well and the plate was incubated for coloring at room temperature for 30 minutes; and then 100 μL of 0.5 M sulfuric acid solution was added to each well to stop the reaction. Next, a microplate reader was used to measure the absorbance of each well at a wavelength of 450 nm. The Muc5ac content in each sample was calculated using the standard curve. […]\nThe amount of Muc5ac included in the culture supernatant was detected using the same ELISA assay as in Example 1."}, "[3]": {"test_system": "Muc5ac protein in conjunctival tissue", "test": "In vivo instillation, then amount of Muc5ac protein in conjunctival tissue lysate (ELISA)", "parameters": "species or system white rabbit", "conditions": "100 μM instilled 4 times per day for 3 days; tissue lysate at 500 ng/μL protein, FIG. 4b", "procedure": "as §1\nAfter 3 days with the above administration, each white domestic rabbit was euthanized and its conjunctival tissue was sampled using a trephine with a diameter of 5 mm. […] The amount of Muc5ac included in the culture supernatant was quantified using the same ELISA assay as in Example 1.\nMeanwhile, 150 μL of SDS(−) RIPA lysis buffer (manufactured by Nacalai Tesque, Inc.) was added to the conjunctival tissue collected, and the tissue was soaked and incubated at 4° C. for 30 minutes, followed by homogenization. […] After a protein concentration was measured using Nano Drop (manufactured by Thermo Scientific, Inc.), the protein concentration was adjusted to 500 ng/μL. Subsequently, the amount of Muc5ac included in the protein solution prepared was quantified using the same ELISA assay as in Example 1."}, "[4]": {"test_system": "corneal epithelial tissue wound", "test": "Wound healing effect on corneal epithelial tissue in vivo (fluorescein staining, wound area)", "parameters": "species or system white rabbit", "conditions": "100 μM solution instilled 30-50 μL/dose 4 times per day", "procedure": "In order to examine an wound healing effect of Compound 1 on an corneal epithelial tissue, in vivo experiments were carried out using white rabbits (Slc:JW/CSKSlc:NZW strain).\nas §1, with “a trephine with a diameter of 8 mm was used to create a wound on a corneal epithelial tissue” for “the right eye”, “rabbit. From the day of creating the wound, the test group” for “rabbit”, “control group” for “left eye”, “solution” for “solution as a control”, “n=5.” for “n=6.”\nIn order to determine the area of the wound on the corneal epithelial tissue, a physiological saline solution and a fluorescein test paper were used to perform fluorescein staining of the corneal epithelial tissue; and a time course change in the area of the wound on the corneal epithelium was observed while its photographs were taken. The wound area was image-processed using Image J software and was statistically analyzed."}}, "data": [{"compound": "O=C1NC(CO)C(=O)N2CC(O)CC12", "note": "[Compound 1, cyclo-trans-4-L-hydroxyprolyl-L-serine]", "values": [{"measurement": "amount of Muc5ac in culture supernatant of conjunctival tissue compared with control group", "setting": "Muc5ac secretion", "result": "remarkably high"}, {"measurement": "amount of Muc5ac (stained red-purple) in the conjunctival tissue by PAS staining versus control group", "setting": "[1]", "result": "apparently lower"}, {"measurement": "amount of Muc5ac in culture supernatant, concentration dependence", "setting": "[2]; 0, 1, 10 or 100 μM, soaked 6 hours, n=5, FIG. 2", "result": "increased depending on the concentration"}, {"measurement": "difference in the amount of Muc5ac between presence and absence of Compound 1, across culture times", "setting": "[2]; 100 μM in HBSS, at 6 hours of culturing", "result": "most prominent"}, {"measurement": "amount of Muc5ac in culture supernatant compared with absence of Compound 1", "setting": "[2]; 100 μM in HBSS, cultured 3 hours, n=5, FIG. 1(a)", "result": "increased"}, {"measurement": "amount of Muc5ac in culture supernatant in the presence of Compound 1", "setting": "[2]; 100 μM in HBSS, cultured 6 hours", "result": "increase"}, {"measurement": "amount of Muc5ac in culture supernatant in the presence of Compound 1", "setting": "[2]; 100 μM in HBSS, cultured 12 hours", "result": "increase"}, {"measurement": "amount of Muc5ac protein in the conjunctival tissue versus control group", "setting": "[3]", "result": "approximately equal"}, {"measurement": "wound area of corneal epithelium versus control group", "setting": "[4]; from Day 1, t-test p<0.01, FIG. 3", "result": "smaller"}, {"measurement": "time required for complete cure of the wound", "setting": "[4]; control group 5 days", "result": 4, "unit": "days"}]}]}
